biological target: T1, human M1 receptor (Homo sapiens, UniProt P11229); assay: In vitro functional assay of muscarinic acetylcholine receptor activity (aequorin calcium flux, reversal of EC80 acetylcholine response); format: cell-based; conditions: CHO-K1 cells stably expressing human M1 receptor with aequorin; acetylcholine at EC80; calcium flux (luminescence); read-out: M1 IC50
T1 sequence (P11229 1-460): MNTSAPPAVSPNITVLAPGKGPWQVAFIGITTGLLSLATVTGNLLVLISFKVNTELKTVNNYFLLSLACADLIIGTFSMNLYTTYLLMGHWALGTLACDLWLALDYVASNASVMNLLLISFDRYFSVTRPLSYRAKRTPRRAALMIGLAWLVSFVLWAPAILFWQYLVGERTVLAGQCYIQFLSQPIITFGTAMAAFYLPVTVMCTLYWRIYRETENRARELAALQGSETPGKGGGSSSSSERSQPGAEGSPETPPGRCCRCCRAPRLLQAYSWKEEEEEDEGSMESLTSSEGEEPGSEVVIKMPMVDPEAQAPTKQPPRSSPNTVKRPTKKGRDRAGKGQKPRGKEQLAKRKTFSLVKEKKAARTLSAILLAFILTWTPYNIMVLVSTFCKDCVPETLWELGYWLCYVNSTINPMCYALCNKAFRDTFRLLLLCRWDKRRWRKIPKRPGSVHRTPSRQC
Procedure, shortened: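 CHO-K1 cells expressing human M1 and aequorin, loaded with 5 μM coelenterazine for 4 h, preincubated with compound 30 min at room temperature, then challenged with EC80 acetylcholine.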

Compound | IC50
N#Cc1ccc(N2C3CCC2CN(C(=O)CNC2(c4ccc(F)cn4)CC2)C3)nc1 [Example 69, 6-(3-((1-(5-fluoropyridin-2-yl)cyclopropyl)glycyl)-3,8-diazabicyclo[3.2.1]octan-8-yl)nicotinonitrile] | 0.1 to 1 µM
N#Cc1ccc(N2C[C@H]3CC[C@@H]2CN3C(=O)CCNC2(c3ccc(F)c(F)c3)CC2)nc1 [Example 41, 6-((1R,4R)-5-(3-((1-(3,4-difluorophenyl)cyclopropyl)amino)propanoyl)-2,5-diazabicyclo[2.2.2]octan-2-yl)nicotinonitrile] | 0.01 to 0.1 µM
N#Cc1ccc(N2[C@@H]3CC[C@H]2CN(C(=O)CCNC2(c4ccc(F)c(Br)c4)CC2)C3)nc1 [Example 11, 6-(3-(3-((1-(3-bromo-4-fluorophenyl)cyclopropyl)amino)propanoyl)-3,8-diazabicyclo[3.2.1]octan-8-yl)nicotinonitrile] | < 0.01 µM
COc1ccccc1C1(NCCC(=O)N2CC3CCC(C2)N3c2ccc(C#N)cn2)CC1 [Example 15, 6-(3-(3-((1-(2-methoxyphenyl)cyclopropyl)amino)propanoyl)-3,8-diazabicyclo[3.2.1]octan-8-yl)nicotinonitrile] | 0.01 to 0.1 µM
COc1ccnc(C2(OCC(=O)N3CC4CCC(C3)N4c3ccc(C#N)cn3)CCC2)n1 [Example 264, 6-(3-(2-(1-(4-methoxypyrimidin-2-yl)cyclobutoxy)acetyl)-3,8-diazabicyclo[3.2.1]octan-8-yl)nicotinonitrile] | < 0.01 µM
N#Cc1ccc(N2C3CCC2CN(C(=O)COC2(c4ccc(F)cc4)CCC2)C3)nc1 [Example 234, 6-(3-(2-(1-(4-fluorophenyl)cyclobutoxy)acetyl)-3,8-diazabicyclo[3.2.1]octan-8-yl)nicotinonitrile] | 0.01 to 0.1 µM
N#Cc1ccc(N2C3CCC2CN(C(=O)CCNC2(c4cccc(C#N)c4)CC2)C3)nc1 [Example 13, 6-(3-(3-((1-(3-cyanophenyl)cyclopropyl)amino)propanoyl)-3,8-diazabicyclo[3.2.1]octan-8-yl)nicotinonitrile] | 0.01 to 0.1 µM
CC(C)(O)C(NCCC(=O)N1C[C@H]2CC[C@@H](C1)N2c1ccc(C#N)cn1)c1ccccc1 (mixture of isomers) [Example 49, 6-(3-(3-((2-hydroxy-2-methyl-1-phenylpropyl)amino)propanoyl)-3,8-diazabicyclo[3.2.1]octan-8-yl)nicotinonitrile] | 1 to 10 µM
Cc1ccc(N2[C@@H]3CC[C@H]2CN(C(=O)CCNC2(c4ccc(F)c(F)c4)CC2)C3)nn1 [Example 47, 3-((1-(3,4-difluorophenyl)cyclopropyl)amino)-1-(8-(6-methylpyridazin-3-yl)-3,8-diazabicyclo[3.2.1]octan-3-yl)propan-1-one] | 0.01 to 0.1 µM
N#Cc1ccc(N2C3CCC2CN(C(=O)CNC2(c4c(F)cccc4F)CC2)C3)nc1 [Example 72, 6-(3-((1-(2,6-difluorophenyl)cyclopropyl)glycyl)-3,8-diazabicyclo[3.2.1]octan-8-yl)nicotinonitrile] | 0.1 to 1 µM
COc1ccc2c(c1)C(C)N(CC(=O)N1CC3CCC(C1)N3c1ccc(C#N)cn1)CC2 (racemic) [Example 120, 6-(3-(2-(7-methoxy-1-methyl-3,4-dihydroisoquinolin-2(1H)-yl)acetyl)-3,8-diazabicyclo[3.2.1]octan-8-yl)nicotinonitrile] | 1 to 10 µM
COc1cc(C(F)(F)CCCC(=O)N2CC3CCC(C2)N3c2ccc(C#N)cn2)ccn1 [Example 150, 6-(3-(5,5-difluoro-5-(2-methoxypyridin-4-yl)pentanoyl)-3,8-diazabicyclo[3.2.1]octan-8-yl)nicotinonitrile] | 0.1 to 1 µM
N#Cc1ccc(N2C3CCC2CN(C(=O)COC2(c4cc(F)ccc4F)CC2)C3)nc1 [Example 213, 6-(3-(2-(1-(2,5-difluorophenyl)cyclopropoxy)acetyl)-3,8-diazabicyclo[3.2.1]octan-8-yl)nicotinonitrile] | 0.01 to 0.1 µM
N#Cc1ccc(N2[C@@H]3CC[C@H]2CN(C(=O)CCNC2(c4ccccn4)CC2)C3)nc1 [Example 18, 6-(3-(3-((1-(pyridin-2-yl)cyclopropyl)amino)propanoyl)-3,8-diazabicyclo[3.2.1]octan-8-yl)nicotinonitrile] | 1 to 10 µM
CC(OCC(=O)N1CC2CCC(C1)N2c1ccc(C#N)cn1)c1ccc(C(F)(F)F)nc1 (racemic) [Example 190, 6-(3-(2-(1-(6-(trifluoromethyl)pyridin-3-yl)ethoxy)acetyl)-3,8-diazabicyclo[3.2.1]octan-8-yl)nicotinonitrile] | > 1 µM
CC(NCC(=O)N1CC2CCC(C1)N2c1ccc(C#N)cn1)c1cccc2ncnn12 (racemic) [Example 54, 6-(3-((1-([1,2,4]triazolo[1,5-a]pyridin-5-yl)ethyl)glycyl)-3,8-diazabicyclo[3.2.1]octan-8-yl)nicotinonitrile] | 0.01 to 0.1 µM

Compound | IC50
N#Cc1ccc(N2[C@@H]3CC[C@H]2CN(C(=O)CCNC2(c4ncc(F)cc4F)CC2)C3)nc1 [Example 31, 6-(3-(3-((1-(3,5-difluoropyridin-2-yl)cyclopropyl)amino)propanoyl)-3,8-diazabicyclo[3.2.1]octan-8-yl)nicotinonitrile] | 0.1 to 1 µM
COc1cc(C2(OCC(=O)N3CC4CCC(C3)N4c3ccc(C#N)cn3)CCC2)ncn1 [Example 263, 6-(3-(2-(1-(6-methoxypyrimidin-4-yl)cyclobutoxy)acetyl)-3,8-diazabicyclo[3.2.1]octan-8-yl)nicotinonitrile] | 0.01 to 0.1 µM
N#Cc1ccc(N2C3CCC2CN(C(=O)COC(c2cccc4ncnn24)C2CC2)C3)nc1 (racemic) [Example 195, 6-(3-(2-([1,2,4]triazolo[1,5-a]pyridin-5-yl(cyclopropyl)methoxy)acetyl)-3,8-diazabicyclo[3.2.1]octan-8-yl)nicotinonitrile] | 0.01 to 0.1 µM
COc1cccc([C@H](C)NCC(=O)N2CC3CCC(C2)N3c2ccc(C#N)cn2)c1 [Example 92, 6-(3-(((S)-1-(3-methoxyphenyl)ethyl)glycyl)-3,8-diazabicyclo[3.2.1]octan-8-yl)nicotinonitrile] | < 0.01 µM
N#Cc1ccc(N2C3CCC2CN(C(=O)CNC2(c4cccc(F)c4)CC2)C3)nc1 [Example 95, 6-(3-((1-(3-fluorophenyl)cyclopropyl)glycyl)-3,8-diazabicyclo[3.2.1]octan-8-yl)nicotinonitrile] | 0.01 to 0.1 µM
N#Cc1ccc(N2C3CCC2CN(C(=O)COC2(c4ncccn4)CCC2)C3)nc1 [Example 273, 6-(3-(2-(1-(pyrimidin-2-yl)cyclobutoxy)acetyl)-3,8-diazabicyclo[3.2.1]octan-8-yl)nicotinonitrile] | 0.1 to 1 µM
COc1cccc(C(CO)CCC(=O)N2CC3CCC(C2)N3c2ccc(C#N)cn2)c1 (racemic) [Example 317, 6-(3-(5-hydroxy-4-(3-methoxyphenyl)pentanoyl)-3,8-diazabicyclo[3.2.1]octan-8-yl)nicotinonitrile] | < 0.01 µM
N#Cc1ccc(N2[C@@H]3CC[C@H]2CN(C(=O)CCNC2(c4ccc(F)c(F)c4)CCC2)C3)nc1 [Example 37, 6-(3-(3-((1-(3,4-difluorophenyl)cyclobutyl)amino)propanoyl)-3,8-diazabicyclo[3.2.1]octan-8-yl)nicotinonitrile] | < 0.01 µM
N#Cc1ccc(N2C3CCC2CN(C(=O)COC2(c4ccc(F)c(F)c4)CC2)C3)nn1 [Example 280, 6-(3-(2-(1-(3,4-difluorophenyl)cyclopropoxy)acetyl)-3,8-diazabicyclo[3.2.1]octan-8-yl)pyridazine-3-carbonitrile] | 0.1 to 1 µM
CC(OCC(=O)N1CC2CCC(C1)N2c1ccc(C#N)cn1)c1cccc2nccnc12 (racemic) [Example 193, 6-(3-(2-(1-(quinoxalin-5-yl)ethoxy)acetyl)-3,8-diazabicyclo[3.2.1]octan-8-yl)nicotinonitrile] | < 0.01 µM
COc1cncc(C2(OCC(=O)N3CC4CCC(C3)N4c3ccc(C#N)cn3)CCC2)c1 [Example 233, 6-(3-(2-(1-(5-methoxypyridin-3-yl)cyclobutoxy)acetyl)-3,8-diazabicyclo[3.2.1]octan-8-yl)nicotinonitrile] | < 0.01 µM
C[C@@H](OCCC(=O)N1CC2CCC(C1)N2c1ccc(C#N)cn1)c1ccc(F)c(F)c1 [Example 306, 6-(3-(3-((R)-1-(3,4-difluorophenyl)ethoxy)propanoyl)-3,8-diazabicyclo[3.2.1]octan-8-yl)nicotinonitrile] | 0.01 to 0.1 µM
N#Cc1ccc(N2C3CCC2CN(C(=O)CCOC2(c4ccc(F)cc4)CCC2)C3)nc1 [Example 310, 6-(3-(3-(1-(4-fluorophenyl)cyclobutoxy)propanoyl)-3,8-diazabicyclo[3.2.1]octan-8-yl)nicotinonitrile] | < 0.01 µM
N#Cc1ccc(N2C3CCC2CN(C(=O)COC2(c4cccc(C#N)c4)CC2)C3)nc1 [Example 295, 6-(3-(2-(1-(3-cyanophenyl)cyclopropoxy)acetyl)-3,8-diazabicyclo[3.2.1]octan-8-yl)nicotinonitrile] | 0.1 to 1 µM
N#Cc1ccc(N2C3CCC2CN(C(=O)COC2(c4cncc(F)c4)CC2)C3)nc1 [Example 229, 6-(3-(2-(1-(5-fluoropyridin-3-yl)cyclopropoxy)acetyl)-3,8-diazabicyclo[3.2.1]octan-8-yl)nicotinonitrile] | 0.1 to 1 µM
N#Cc1ccc(N2[C@@H]3CC[C@H]2CN(C(=O)CCNC2(c4ccc(Cl)c(F)c4)CC2)C3)nc1 [Example 34, 6-(3-(3-((1-(4-chloro-3-fluorophenyl)cyclopropyl)amino)propanoyl)-3,8-diazabicyclo[3.2.1]octan-8-yl)nicotinonitrile] | < 0.01 µM

Reference: patent US12565501B2, “Muscarinic acetylcholine M1 receptor antagonists” (Contineum Therapeutics, Inc., priority 2019, dated 2026)
